Laboratory results taken from patent publication US20240317718A1, “SUBSTITUTED HETEROCYCLIC COMPOUNDS” (BRISTOL-MYERS SQUIBB COMPANY, priority 2021, published 2024).

Experiments:
[1] = system: IFNα-induced pSTAT5 (Tyk2-mediated signal transduction); experiment: IFNα-induced STAT phosphorylation in human whole blood; type: cell-based; conditions: 1 h incubation with compound, 1000 U/mL IFNα A/D for 15 min, CD3 positive population, read-out: Human Whole blood IFNa pSTAT5 IC50
Experimental: IFNα-Induced STAT Phosphorylation in Human Whole Blood
After an hour long incubation with compound, human whole blood (drawn with ACD-A as anticoagulant) was stimulated with 1000 U/mL recombinant human IFNα A/D (R&D Systems 11200-2) for 15 min. The stimulation was stopped by adding Fix/Lyse buffer (BD 558049). Cells were stained with a CD3 FITC antibody (BD 555916), washed, and permeabilized on ice using Perm III buffer (BD 558050). Cells were then stained with an Alexa-Fluor 647 pSTAT5 (pY694) antibody (BD 612599) for 60 min prior to analysis on the iQue Plus. The amount of pSTAT5 expression was quantitated by median fluorescence intensity after gating on the CD3 positive population.

[2] = in vitro; conditions: human, Caco-2, pH 7.4

Compound	IC50 [1] [nM]	Papp A→B at 2 h, 3 μM [2] [×10⁻⁶ cm/s]	efflux ratio at 2 h, 3 μM [2]
[2H]C([2H])([2H])NC(=O)c1nnc(NC(=O)C2CC2)cc1Nc1cccc(-c2noc(C(F)F)n2)c1OC [Example 19, 6-(cyclopropanecarboxamido)-4-((3-(5-(difluoromethyl)-1,2,4-oxadiazol-3-yl)-2-methoxyphenyl)amino)-N-(methyl-d3)pyridazine-3-carboxamide]	69	17	0.6
[2H]C([2H])([2H])NC(=O)c1nnc(NC(=O)C2CC2)cc1Nc1cccc(-c2csc(C)n2)c1OC [Example 21, 6-cyclopropaneamido-4-{[2-methoxy-3-(2-methyl-1,3-thiazol-4-yl)phenyl]amino}-N-(^2H3)methylpyridazine-3-carboxamide]	385	14.1	0.7
[2H]C([2H])([2H])NC(=O)c1nnc(NC(=O)C2CC2)cc1Nc1cccc(-c2cnc(OC)cn2)c1OC [Example 22, 6-cyclopropaneamido-4-{[2-methoxy-3-(5-methoxypyrazin-2-yl)phenyl]amino}-N-(^2H3)methylpyridazine-3-carboxamide]	410	32.3	0.6
[2H]C([2H])([2H])NC(=O)c1nnc(NC(=O)C2CC2)cc1Nc1cccc(-c2cnc(C)cn2)c1OC [Example 23, 6-cyclopropaneamido-4-{[2-methoxy-3-(5-methylpyrazin-2-yl)phenyl]amino}-N-(^2H3)methylpyridazine-3-carboxamide]	243	17.4	1.4
[2H]C([2H])([2H])NC(=O)c1nnc(NC(=O)C2CC2)cc1Nc1cc(F)cc(-c2cnn(C)c2)c1OC [Example 27, 6-cyclopropaneamido-4-{[5-fluoro-2-methoxy-3-(1-methyl-1H-pyrazol-4-yl)phenyl]amino}-N-(^2H3)methylpyridazine-3-carboxamide]	177	31.2	0.9
[2H]C([2H])([2H])NC(=O)c1nnc(NC(=O)C2CC2)cc1Nc1cccc(-c2cnn(C3CC3)c2)c1OC [Example 28, 6-cyclopropaneamido-4-{[3-(1-cyclopropyl-1H-pyrazol-4-yl)-2-methoxyphenyl]amino}-N-(^2H3)methylpyridazine-3-carboxamide]	425	27.4	0.7
[2H]C([2H])([2H])NC(=O)c1nnc(NC(=O)C2CC2)cc1Nc1nccc(-c2cn(C)nc2C)c1OC [Example 31, 6-cyclopropaneamido-4-{[4-(1,3-dimethyl-1H-pyrazol-4-yl)-3-methoxypyridin-2-yl]amino}-N-(^2H3)methylpyridazine-3-carboxamide]	289	39.3	1
[2H]C([2H])([2H])NC(=O)c1nnc(NC(=O)C2CC2)cc1Nc1nccc(-c2cnn(C)c2C)c1OC [Example 32, 6-cyclopropaneamido-4-{[4-(1,5-dimethyl-1H-pyrazol-4-yl)-3-methoxypyridin-2-yl]amino}-N-(^2H3)methylpyridazine-3-carboxamide]	437	31.5	0.9
[2H]C([2H])([2H])NC(=O)c1nnc(NC(=O)C2CC2)cc1Nc1nccc(-c2nccs2)c1OC [Example 33, 6-cyclopropaneamido-4-{[3-methoxy-4-(1,3-thiazol-2-yl)pyridin-2-yl]amino}-N-(^2H3)methylpyridazine-3-carboxamide]	207	38.3	0.4
[2H]C([2H])([2H])NC(=O)c1nnc(NC(=O)C2CC2)cc1Nc1cccc(-c2ccsn2)c1OC [Example 35, 6-cyclopropaneamido-4-{[2-methoxy-3-(1,2-thiazol-3-yl)phenyl]amino}-N-(^2H3)methylpyridazine-3-carboxamide]	121	42.2	0.5
[2H]C([2H])([2H])NC(=O)c1nnc(NC(=O)C2CC2)cc1Nc1cccc(-c2cnsc2)c1OC [Example 36, 6-cyclopropaneamido-4-{[2-methoxy-3-(1,2-thiazol-4-yl)phenyl]amino}-N-(^2H3)methylpyridazine-3-carboxamide]	225	20.3	0.9
[2H]C([2H])([2H])NC(=O)c1nnc(NC(=O)C2CC2)cc1Nc1cc(F)cc(-c2cocn2)c1OC [Example 37, 6-cyclopropaneamido-4-{[5-fluoro-2-methoxy-3-(1,3-oxazol-4-yl)phenyl]amino}-N-(^2H3)methylpyridazine-3-carboxamide]	84	35.4	0.4
[2H]C([2H])([2H])NC(=O)c1nnc(NC(=O)C2CC2)cc1Nc1nccc(-c2cnsc2)c1OC [Example 38, 6-cyclopropaneamido-4-{[3-methoxy-4-(1,2-thiazol-4-yl)pyridin-2-yl]amino}-N-(^2H3)methylpyridazine-3-carboxamide]	381	59.5	0.5
[2H]C([2H])([2H])NC(=O)c1nnc(NC(=O)[C@@H]2C[C@H]2C)cc1Nc1nccc(-c2nc(C)ns2)c1OC [Example 40, 4-{[3-methoxy-4-(3-methyl-1,2,4-thiadiazol-5-yl)pyridin-2-yl]amino}-N-(^2H3)methyl-6-[(1R,2R)-2-methylcyclopropaneamido]pyridazine-3-carboxamide]	179	12.6	0.3
[2H]C([2H])([2H])NC(=O)c1nnc(NC(=O)C2CC2)cc1Nc1nccc(-c2cnn(C(F)F)c2)c1OC [Example 42, 6-cyclopropaneamido-4-({4-[1-(difluoromethyl)-1H-pyrazol-4-yl]-3-methoxypyridin-2-yl}amino)-N-(^2H3)methylpyridazine-3-carboxamide]	193	26.6	0.4
[2H]C([2H])([2H])NC(=O)c1nnc(NC(=O)C2CC2)cc1Nc1cccc(-c2noc(CC)n2)c1OC [Example 43, 6-cyclopropaneamido-4-{[3-(5-ethyl-1,2,4-oxadiazol-3-yl)-2-methoxyphenyl]amino}-N-(^2H3)methylpyridazine-3-carboxamide]	443	24.2	0.8

Continued by falling IC50 [1], values first:

IC50 [1] [nM]	Papp A→B at 2 h, 3 μM [2] [×10⁻⁶ cm/s]	efflux ratio at 2 h, 3 μM [2]	Compound
474	23.3	1.1	[2H]C([2H])([2H])NC(=O)c1nnc(NC(=O)C2CC2)cc1Nc1cccc(-c2ccns2)c1OC [Example 34, 6-cyclopropaneamido-4-{[2-methoxy-3-(1,2-thiazol-5-yl)phenyl]amino}-N-(^2H3)methylpyridazine-3-carboxamide]
426	14.8	1.2	[2H]C([2H])([2H])NC(=O)c1nnc(NC(=O)C2CC2)cc1Nc1cccc(-c2ccc(C(C)(C)C#N)cn2)c1OC [Example 24, 4-({3-[5-(1-cyano-1-methylethyl)pyridin-2-yl]-2-methoxyphenyl}amino)-6-cyclopropaneamido-N-(^2H3)methylpyridazine-3-carboxamide]
417	31.7	0.5	[2H]C([2H])([2H])NC(=O)c1nnc(NC(=O)C2CC2)cc1Nc1cccc(-c2cnc(C#N)cn2)c1OC [Example 29, 4-{[3-(5-cyanopyrazin-2-yl)-2-methoxyphenyl]amino}-6-cyclopropaneamido-N-(^2H3)methylpyridazine-3-carboxamide]
201	30	1	[2H]C([2H])([2H])NC(=O)c1nnc(NC(=O)C2CC2)cc1Nc1ccc(F)c(-c2cnn(C)c2)c1OC [Example 26, 6-cyclopropaneamido-4-{[4-fluoro-2-methoxy-3-(1-methyl-1H-pyrazol-4-yl)phenyl]amino}-N-(^2H3)methylpyridazine-3-carboxamide]
193	22.7	0.5	[2H]C([2H])([2H])NC(=O)c1nnc(NC(=O)C2CC2)cc1Nc1nccc(-c2cnn(C3CC3)c2)c1OC [Example 30, 6-cyclopropaneamido-4-{[4-(1-cyclopropyl-1H-pyrazol-4-yl)-3-methoxypyridin-2-yl]amino}-N-(^2H3)methylpyridazine-3-carboxamide]
175	27.7	0.4	[2H]C([2H])([2H])NC(=O)c1nnc(NC(=O)C2CC2)cc1Nc1nccc(-c2ncns2)c1OC [Example 41, 6-cyclopropaneamido-4-{[3-methoxy-4-(1,2,4-thiadiazol-5-yl)pyridin-2-yl]amino}-N-(^2H3)methylpyridazine-3-carboxamide]
159	46.3	0.3	[2H]C([2H])([2H])NC(=O)c1nnc(NC(=O)C2CC2)cc1Nc1nccc(-c2nc(C)ns2)c1OC [Example 39, 6-cyclopropaneamido-4-{[3-methoxy-4-(3-methyl-1,2,4-thiadiazol-5-yl)pyridin-2-yl]amino}-N-(^2H3)methylpyridazine-3-carboxamide]
148	18.8	2.9	[2H]C([2H])([2H])NC(=O)c1nnc(NC(=O)C2CC2)cc1Nc1nccc(-c2cnc(C(C)(C)O)cn2)c1OC [Example 20, 6-(cyclopropanecarboxamido)-4-((4-(5-(2-hydroxypropan-2-yl)pyrazin-2-yl)-3-methoxypyridin-2-yl)amino)-N-(methyl-d3)pyridazine-3-carboxamide]
